In general, IC50 refers to the concentration at which inhibition is half-maximal.

This test addresses Mitogen-activated protein kinase kinase kinase kinase 1 (Homo sapiens, UniProt Q92918). In words: Enzymatic Activity Assay: The enzymatic activity of Wild Type HPK1 (MAP4K1) Kinase was measured in the presence or absence of an inhibitor compound of the present disclosure by preparation of a reaction mixture containing a fluorescein tagged peptide (2 micromolar final concentration), ATP (Adenosine Triphosphate, 500 micromolar final concentration) and Wild Type kinase (6 nM final concentration) in a buffer system comprising 50 mM HEPES (Buffer), 3 mM MgCl2, 5% w/v Trehalose, 0.01% Brij 35 (Detergent), 0.1% Pluronic F127 (Surfactant), 0.1 mM EDTA (Ethylenediaminetetraacetic acid), 0.1 mM EGTA (ethylene glycol-bis(β-aminoethyl ether)-N,N,N′,N′-tetraacetic acid) and 1 mM DTT (Dithiothreitol) and at a pH of 7.4. The reactions were quenched by the addition of EDTA to a final concentration of 25 mM. A Caliper EZ reader was used to measure the extent of substrate to product conversion.The peptide substrate used in the HPK1 assay was designed based on the amino acid sequence surrounding serine residue 376 of SLP76-Lymphocyte cytosolic protein 2 (a known intracellular substrate of HPK1). […]. Type of test: cell-based.

A value given as a limit tells only on which side of the number the result lay.

Sequence of Mitogen-activated protein kinase kinase kinase kinase 1 (Q92918 whole entry): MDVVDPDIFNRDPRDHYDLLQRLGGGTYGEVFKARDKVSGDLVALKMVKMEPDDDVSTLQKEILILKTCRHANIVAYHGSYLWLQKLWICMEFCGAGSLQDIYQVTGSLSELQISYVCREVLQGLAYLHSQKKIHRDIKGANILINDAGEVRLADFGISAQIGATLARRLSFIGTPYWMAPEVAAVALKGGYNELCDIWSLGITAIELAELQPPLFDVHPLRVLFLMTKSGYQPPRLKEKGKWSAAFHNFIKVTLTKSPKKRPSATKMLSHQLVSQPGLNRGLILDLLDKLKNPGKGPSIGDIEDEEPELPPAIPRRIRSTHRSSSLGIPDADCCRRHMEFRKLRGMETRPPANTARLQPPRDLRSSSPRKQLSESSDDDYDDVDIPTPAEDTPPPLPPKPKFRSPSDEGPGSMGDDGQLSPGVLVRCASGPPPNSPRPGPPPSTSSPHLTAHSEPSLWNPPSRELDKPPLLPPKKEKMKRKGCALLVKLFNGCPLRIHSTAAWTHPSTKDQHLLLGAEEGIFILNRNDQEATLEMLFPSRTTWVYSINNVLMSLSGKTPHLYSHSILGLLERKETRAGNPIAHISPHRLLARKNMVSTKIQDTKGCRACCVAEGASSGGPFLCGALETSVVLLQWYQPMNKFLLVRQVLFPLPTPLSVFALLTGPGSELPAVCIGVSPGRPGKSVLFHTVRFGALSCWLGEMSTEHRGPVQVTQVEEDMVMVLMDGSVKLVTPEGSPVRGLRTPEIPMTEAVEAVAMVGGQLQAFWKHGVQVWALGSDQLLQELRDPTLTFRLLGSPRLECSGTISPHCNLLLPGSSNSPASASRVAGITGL

Take `CN1CCc2cc(Nc3ncc(Cl)c(Nc4ccccc4P(C)(C)=O)n3)c(Cl)cc2C1`: the IC50 is less than 5 nM.
